What was measured:
Test in all cases: relative viability (nuclei count vs DMSO), 5 days (fraction); higher = more cells survive
[1] = compound: COc1ccc(-c2ccc3c(N4CCOC[C@@H]4C)nc(N4CCOC[C@@H]4C)nc3n2)cc1CO [AZD8055] + CS(=O)(=O)CCNCc1ccc(-c2ccc3ncnc(Nc4ccc(OCc5cccc(F)c5)c(Cl)c4)c3c2)o1 [Lapatinib] (partner 2 µM)
Method in brief: (§1)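 For relative viability, nuclei counts in treated wells were divided by those in vehicle wells. Lung cancer cell lines had been pin-tool dosed in 1536-well plates the day after seeding and cultured for 5 days, then fixed and stained in one step (final 0.05% Triton X-100, 1% formaldehyde, 1 ug/ml Hoechst) and imaged at 4×. Doses were one drug alone or a fixed anchor-drug dose plus five library-drug doses (not always all listed) in √10 steps, and values are duplicate-plate medians.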

[2] = compound: COc1ccc(-c2ccc3c(N4CCOC[C@@H]4C)nc(N4CCOC[C@@H]4C)nc3n2)cc1CO [AZD8055] + C[C@]1(O)C[C@@H](c2nc(-c3ccc4ccc(-c5ccccc5)nc4c3)c3c(N)nccn32)C1 [Linsitinib] (partner 1 µM)
Method in brief: as §1

[3] = compound: COc1ccc(-c2ccc3c(N4CCOC[C@@H]4C)nc(N4CCOC[C@@H]4C)nc3n2)cc1CO [AZD8055] + COc1cccc2cc(-c3nc([C@H]4CC[C@H](C(=O)O)CC4)n4ncnc(N)c34)[nH]c12 [OSI-027] (partner 0.5 µM)
Method in brief: as §1

[4] = compound: COc1ccc(-c2ccc3c(N4CCOC[C@@H]4C)nc(N4CCOC[C@@H]4C)nc3n2)cc1CO [AZD8055] + CCNC(=O)c1noc(-c2cc(C(C)C)c(O)cc2O)c1-c1ccc(CN2CCOCC2)cc1 [Luminespib] (partner 0.01 µM)
Method in brief: as §1

Cell Line | relative viability ([1]; first compound 0.01 µM) | relative viability ([1]; first compound 0.03162 µM) | relative viability ([1]; first compound 0.1 µM) | relative viability ([1]; first compound 0.3162 µM) | relative viability ([1]; first compound 1 µM) | relative viability ([2]; first compound 0.01 µM) | relative viability ([2]; first compound 0.03162 µM) | relative viability ([2]; first compound 0.1 µM) | relative viability ([2]; first compound 0.3162 µM) | relative viability ([2]; first compound 1 µM) | relative viability ([3]; first compound 0.01 µM) | relative viability ([3]; first compound 0.03162 µM) | relative viability ([3]; first compound 0.1 µM) | relative viability ([3]; first compound 0.3162 µM) | relative viability ([3]; first compound 1 µM) | relative viability ([4]; first compound 0.01 µM) | relative viability ([4]; first compound 0.03162 µM) | relative viability ([4]; first compound 0.1 µM) | relative viability ([4]; first compound 0.3162 µM) | relative viability ([4]; first compound 1 µM)
HCC-44 | 1.09 | 0.997 | 0.769 | 0.565 | 0.443 | 0.565 | 0.506 | 0.298 | 0.198 | 0.226 | 0.6 | 0.526 | 0.483 | 0.267 | 0.308 | 1.03 | 0.974 | 0.804 | 0.439 | 0.429
PC-14 | 0.315 | 0.204 | 0.244 | 0.16 | 0.148 | 1.03 | 0.944 | 0.669 | 0.526 | 0.211 | 1.2 | 0.849 | 0.497 | 0.283 | 0.109 | 0.162 | 0.17 | 0.206 | 0.187 | 0.212
HOP-62 | 1.14 | 0.908 | 0.962 | 0.369 | 0.316 | 1.09 | 0.789 | 0.869 | 0.362 | 0.266 | 0.902 | 0.795 | 0.87 | 0.585 | 0.453 | 1.08 | 0.842 | 0.888 | 0.634 | 0.482
NCI-H358 | 0.444 | 0.41 | 0.394 | 0.254 | 0.246 | 0.728 | 0.561 | 0.429 | 0.209 | 0.236 | 0.871 | 0.708 | 0.576 | 0.29 | 0.164 | 0.33 | 0.336 | 0.392 | 0.123 | 0.0919
SK-MES-1 | 0.444 | 0.387 | 0.371 | 0.274 | 0.318 | 1.06 | 0.932 | 0.743 | 0.447 | 0.313 | 0.653 | 0.629 | 0.557 | 0.338 | 0.22 | 0.371 | 0.503 | 0.185 | 0.182 | 0.213
NCI-H1666 | 0.587 | 0.488 | 0.488 | 0.355 | 0.362 | 0.802 | 0.666 | 0.417 | 0.552 | 0.375 | 0.894 | 0.905 | 0.887 | 0.747 | 0.717 | 1.06 | 1.03 | 0.977 | 0.772 | 0.693
NCI-H1355 | 0.866 | 0.78 | 0.703 | 0.257 | 0.274 | 0.684 | 0.543 | 0.354 | 0.234 | 0.214 | 0.393 | 0.414 | 0.372 | 0.314 | 0.273 | 0.601 | 0.369 | 0.234 | 0.238 | 0.206
HCC-827 | 0.212 | 0.201 | 0.193 | 0.141 | 0.21 | 0.97 | 0.971 | 0.932 | 0.794 | 0.469 | 0.798 | 0.746 | 0.809 | 0.604 | 0.641 | 0.6 | 0.336 | 0.308 | 0.319 | 0.13
HARA | 0.75 | 0.614 | 0.408 | 0.326 | 0.224 | 0.942 | 0.998 | 0.517 | 0.303 | 0.202 | 0.612 | 0.641 | 0.419 | 0.419 | 0.249 | 1.44 | 0.584 | 0.393 | 0.112 | 0.12
NCI-H322M | 0.536 | 0.551 | 0.51 | 0.5 | 0.466 | 0.891 | 0.771 | 0.557 | 0.497 | 0.461 | 0.56 | 0.602 | 0.582 | 0.476 | 0.431 | 0.797 | 0.597 | 0.357 | 0.348 | 0.289
NCI-H2347 | 0.89 | 0.825 | 0.823 | 0.498 | 0.408 | 0.875 | 0.805 | 0.746 | 0.51 | 0.436 | 0.408 | 0.387 | 0.356 | 0.346 | 0.248 | 0.295 | 0.251 | 0.367 | 0.282 | 0.222
NCI-H1975 | 1.04 | 0.601 | 0.468 | 0.273 | 0.251 | 0.897 | 0.581 | 0.469 | 0.265 | 0.219 | 0.677 | 0.56 | 0.375 | 0.237 | 0.235 | 0.2 | 0.155 | 0.186 | 0.149 | 0.147
UMC-11 | 0.832 | 0.573 | 0.578 | 0.276 | 0.282 | 0.995 | 0.884 | 0.539 | 0.251 | 0.266 | 0.494 | 0.452 | 0.367 | 0.302 | 0.284 | 1 | 0.659 | 0.477 | 0.229 | 0.268
